For one test, the system named is B. subtilis (CICC 21164). Kind of test: MIC, broth microdilution. In kind it is cell-based. Particulars: Bacillus subtilis; broth microdilution, 18 h, 37 °C; read-out: MIC B. subtilis (CICC 21164). As to the method:
MIC assays were carried out by employing the broth microdilution method in accordance with Clinical and Laboratory Standards Institute (CLSI) guidelines. E. coli BNCC337004, S. aureus BNCC336423, P. aeruginosa BNCC337099, and B. subtilis CICC 21164 were applied for the MIC detection. Mueller–Hinton broth (MHB) was used in bacterial culture, and log-phase bacteria were diluted into a 0.5 McFarland Standard suspension, which was then diluted 1000 times again. Subsequently, 100 μL of the obtained bacterial suspension was placed into each well of 96-well microtiter plates, along with 2-fold serial dilutions of compounds (512, 256, 128, 64, 32, 16, 8, 4, 2, 1, 0.5, 0 μM). The microtiter plates were incubated aerobically for 18 h at 37 °C. The MIC was defined as the lowest drug concentration at which no visible turbidity was observed. All experiments are conducted in three parallel.

The test system of a further test is S. aureus BNCC336423. Nature of the test: Time–killing curve. In kind it is cell-based. The settings on record: S. aureus BNCC336423, concentrations of 4× the MIC or greater. The method, then:
S. aureus BNCC336423 was employed for the time–killing curve study. […] Meanwhile, DMSO with an equivalent volume was added to the vehicle control tube. The cultures were then subjected to shaking incubation at 37 °C. Subsequently, cultures were taken out at predetermined time intervals (0, 1, 2, 4, 6, 8, and 24 h), centrifuged at 16,000×g for 3 min, and diluted to an appropriate multiple. These diluted samples were then plated onto Tryptic Soy Agar (TSA) plates for enumeration. Following a 24 h incubation period at 37 °C, colonies on the TSA plates were counted for the CFU/mL, thereby providing insights into the time-dependent bactericidal activity of the tested compounds.

Another test deals with T1, S. aureus FtsZ (Staphylococcus aureus, UniProt P0A031).
T1 construct: His tag; made in house; host or cells: E. coli BL21(DE3)
T1 sequence (P0A031 1-390): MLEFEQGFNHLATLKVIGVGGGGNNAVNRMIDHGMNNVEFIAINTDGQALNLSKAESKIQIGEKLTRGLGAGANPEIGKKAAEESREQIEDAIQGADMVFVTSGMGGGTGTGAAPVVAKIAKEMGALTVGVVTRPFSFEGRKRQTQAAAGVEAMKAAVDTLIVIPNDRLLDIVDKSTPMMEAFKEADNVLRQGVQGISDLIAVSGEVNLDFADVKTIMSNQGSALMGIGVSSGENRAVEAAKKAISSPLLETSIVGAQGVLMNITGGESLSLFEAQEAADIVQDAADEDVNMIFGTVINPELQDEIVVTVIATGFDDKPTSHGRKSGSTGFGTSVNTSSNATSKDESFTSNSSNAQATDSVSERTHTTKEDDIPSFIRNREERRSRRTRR
Kind of test: FtsZ polymerization assay (A340). In kind it is biochemical. The method, then:
The effect of compounds on S. aureus FtsZ polymerization was monitored by employing a microtiter plate-based spectrophotometric assay method, and the reactions were conducted in flat-bottomed 96-well microtiter plates. The degree of FtsZ polymerization was reflected by the corresponding changes in absorbance at 340 nm (A340). […] The polymerization reaction began immediately once 4 mM GTP was added, and then the polymerization was continuously monitored at 25 °C for 60 min by measuring A340 in BioTek-Synergy4 multifunctional enzyme-linked immunosorbent assay (ELISA) reader.

A further test deals with B. subtilis. Nature of the test: Phase-contrast microscopy, cell division inhibition. It counts as cell-based. The settings on record: 64 μM, 4 h. As to the method:
Cell Division Inhibitory Screening Assay Cell division inhibitory activity of compounds was conducted as below. […] Afterwards, 1 mL of the sample was centrifuged at 15,000× g for 3 min at room temperature, and the bacterial pellets were washed with 1 mL of PBS before re-centrifugation. The final bacterial pellets obtained were resuspended in 5 mL PBS. 20 μL of bacterial suspension was transferred to slides for microscopy. Cell morphology was estimated by using the phase-contrast method of Olympus IX71 microscopy (Olympus Corporation, Tokyo, Japan) with 400× magnification.

Another test deals with E. coli. Nature of the test: In vivo antibacterial activity, mouse peritoneal infection. More on the design: species or system CD-1 male mice. The text has this:
SPF grade CD-1 male mice weighing 30 ± 3 g were purchased from Shanghai Slake Experimental Animal Co., Ltd. (Shanghai, China). […] Immediately following this, the mice were intraperitoneally injected with the test compounds. Each experimental group consisted of five mice, with each compound being tested at two distinct concentration gradients (determined based on the minimum inhibitory concentration, MIC). A separate group received physiological saline as a negative control. The subsequent assessment focused on evaluating the therapeutic potential of these drugs against bacterial infections. On the first and third days post-administration, 2 mL of sterile physiological saline was injected into the peritoneal cavity of each mouse. After a gentle two-minute dilution under sterile conditions, the abdominal fluid was extracted for bacterial enumeration using the plate counting method. Furthermore, the clinical manifestations of each mouse group, encompassing mental status, appetite, and other relevant parameters, were meticulously observed over a seven-day period. On the seventh day, the mice were euthanized, and a thorough macroscopic examination was conducted to assess the pathological changes in various vital organs.

Another test deals with Hela. Kind of test: Antiproliferative activity, CCK8. In kind it is cell-based. The settings on record: Homo sapiens. The method, then: (§1) Antiproliferative activities of compounds were detected by employing the CCK8 method. HepG2, MCF-7, and Hela cells were cultured to log phase in DMEM medium supplemented with 10% fetal bovine serum. Cells were diluted to 2 × 10^4 cells/mL, and 100 µL of the obtained suspension was seeded in each well of the 96-well microplates, which were then cultured at 37 °C overnight. Subsequently, cells were treated with compounds at different concentrations. After co-culturing for 48 h, wells were washed with PBS three times and filled with 100 μL DMEM complete medium, which contained CCK8. After culturing for 2 h at 37 °C, the absorbance of measured and recorded on an ELISA reader (BioTek-Synergy 4, Winooski, VT, USA) at a test wavelength of 450 nm. Three replicate wells were employed for each drug concentration, and each assay was conducted at least three times.

The next test concerns HepG2. Kind of test: Antiproliferative activity, CCK8. In kind it is cell-based. The settings on record: Homo sapiens, HepG2, 48 h, read-out: cell viability HepG2. The method, then:
as §1

For a further test, the system named is MCF-7. Kind of test: Antiproliferative activity, CCK8. The settings on record: Homo sapiens. It counts as cell-based. As to the method: as §1
Setting [1] is: 48 h, read-out: cell viability Hela.
Setting [2] is: MCF7, 48 h, read-out: cell viability MCF-7.

In brackets after ≈: the same amount, converted by molar mass.

Consider one compound from PMC12561670, “Isolation of Dual-Active Drugs with Anticancer and Antibacterial Activities That Target Both Tubulin and FtsZ” (Antibiotics, 2025).

In general, MIC refers to the least concentration at which growth counts as inhibited. For orientation: viability means a per cent measure of how many cells are alive, often set against a control. As a reminder, the IC50 is the concentration that inhibits the measured activity by half.

Consider `CC(C)(C)c1[nH]cnc1/C=c1\[nH]c(=O)/c(=C/c2ccccc2)[nH]c1=O` [Compound 23, Plinabulin], for which the minimum inhibitory concentration (MIC) with B. subtilis (CICC 21164) stood at 8 µM (≈ 2.69 µg/mL). Further, the “logs of kill in time–kill” value in the test with S. aureus BNCC336423 is 3 logs. The “effect on FtsZ polymerization (A340)” value at S. aureus FtsZ (50 μM compound, 5 µM FtsZ, 4 mM GTP, vs DMSO) is listed as “remarkable promoting effect on FtsZ polymerization”. On S. aureus FtsZ (5, 10, 20 and 50 μM, initial 10 min), the “effect on FtsZ polymerization at different concentrations” value is recorded as “markedly accelerated FtsZ polymerization”. The “cell morphology of B. subtilis (elongation)” value with B. subtilis is “the most pronounced effect”. In the test with E. coli (mice i.p. E. coli, i.p. compound, days 1 and 3), the “bacterial count of peritoneal fluid” value was “substantially mitigated”. In addition, the “clinical presentation of infected mice” value with E. coli (seven-day observation) is “exhibited vitality, maintained a healthy appetite”. For the same compound, the results for the viability at 0.1 µM in the test with Hela (setting [1]), with HepG2 and in the test with MCF-7 (setting [2]) were 26%, 30.5% and 27.5%, respectively. The results for the viability at 1 µM with Hela (setting [1]), in the test on HepG2 and in the test on MCF-7 (setting [2]) were 19%, 11.5% and 10%, respectively. Moreover, the 50% inhibitory concentration (IC50) in the test with Hela (abstract only) was determined as 10 nM; with MCF-7 (MCF7, abstract only), 20 nM.
